9 compounds from ChEMBL document CHEMBL4339244, “Clavariopsins C-I, Antifungal Cyclic Depsipeptides from the Aquatic Hyphomycete Clavariopsis aquatica” (J Nat Prod, 2019) can be followed below.

As a reminder, the IC50 is the concentration needed to halve the response being measured.

One assay deals with HeLa S3. Description: Cytotoxicity in human HeLaS3 cells assessed as reduction in cell viability incubated for 48 hrs by MTT assay. Type of assay: functional, cell-based. The settings on record: HeLa S3, 48 h. (Tetrazolium assays rely on reduction of a dye to a coloured formazan, in cell work by metabolically active cells.)
The subject of another assay is Pyricularia oryzae. Description: Antifungal activity against Magnaporthe oryzae assessed as inhibition of microbial growth by measuring minimum inhibitory dose per disc inducing visually distinct inhibition zone between the paper disk and colony front by paper disk based assay. The format is functional, organism-based.
In assay [1] the test system is Aspergillus niger. Description: Induction of hyphal malformation in Aspergillus niger assessed as minimum effective dose per disc results in obvious morphological changes incubated for 16 hrs by phase contrast microscopy. Type of assay: functional.
The test system of another assay is Alternaria alternata. Description: Antifungal activity against Alternaria alternata assessed as inhibition of microbial growth by measuring minimum inhibitory dose per disc inducing visually distinct inhibition zone between the paper disk and colony front by paper disk based assay. The format is functional.
The subject of assay [2] is Colletotrichum orbiculare. Description: Antifungal activity against Colletotrichum orbiculare assessed as inhibition of microbial growth by measuring minimum inhibitory dose per disc inducing visually distinct inhibition zone between the paper disk and colony front by paper disk based assay. The format is functional, organism-based.
Assay [3] deals with Aspergillus niger. Description: Antifungal activity against Aspergillus niger assessed as inhibition of microbial growth by measuring minimum inhibitory dose per disc inducing visually distinct inhibition zone between the paper disk and colony front by paper disk based assay. The format is functional, organism-based.
For the next assay, the system named is Botrytis cinerea. Description: Antifungal activity against Botrytis cinerea assessed as inhibition of microbial growth by measuring minimum inhibitory dose per disc inducing visually distinct inhibition zone between the paper disk and colony front by paper disk based assay. Type of assay: functional.
A further assay relates to Fusarium oxysporum. Description: Antifungal activity against Fusarium oxysporum assessed as inhibition of microbial growth by measuring minimum inhibitory dose per disc inducing visually distinct inhibition zone between the paper disk and colony front by paper disk based assay. Type of assay: functional, organism-based.

Molecules are shown by their SMILES. Calls of active or inactive are those of the source. No cut-off for these calls is given here.

In the case of `CC[C@H](C)[C@@H]1NC(=O)[C@H]([C@@H](C)CC)N(C)C(=O)[C@H](CC(=O)O)N(C)C(=O)[C@H](C(C)C)NC(=O)[C@H](C(C)C)N(C)C(=O)[C@@H]2CCCCN2C(=O)[C@@H](C(C)C)OC(=O)[C@H](Cc2ccc(OC)cc2)NC(=O)[C@H](C(C)C)N(C)C(=O)CNC1=O`, in the assay with HeLa S3, the IC50 was more than 10 µM. In addition, the inhibition result (in the assay on Pyricularia oryzae; in assay [2]; in the assay on Aspergillus niger [3]; in the assay with Fusarium oxysporum) was “Active” in each case. Also, in the assay on Aspergillus niger [1], the MED was 0.3 µg. The values for the MID in the assay with Alternaria alternata and in the assay with Botrytis cinerea were 0.01 µg and 0.01 to 0.3 µg, respectively.

With `CC[C@H](C)[C@H]1C(=O)NCC(=O)N(C)[C@@H](C(C)C)C(=O)N[C@@H](Cc2ccc(OC)cc2)C(=O)O[C@H](C(C)C)C(=O)N2CCCC[C@H]2C(=O)N[C@@H](C(C)C)C(=O)N[C@@H](C(C)C)C(=O)N(C)[C@@H](CC(=O)O)C(=O)N(C)[C@@H]([C@@H](C)CC)C(=O)N1C`, the IC50 in the assay on HeLa S3 was more than 10 µM. Also, the inhibition entry (in the assay on Pyricularia oryzae; in assay [2]; in the assay on Aspergillus niger [3]; with Fusarium oxysporum) was “Active” in each case. Besides, the MED in the assay with Aspergillus niger [1] worked out at 3 µg. The MID in the assay with Alternaria alternata was in the range of 0.03 to 0.3 µg; in the assay with Botrytis cinerea, 0.01 to 0.3 µg.

`CC[C@H](C)[C@H]1C(=O)NCC(=O)N(C)[C@@H](C(C)C)C(=O)N[C@@H](Cc2ccc(OC)cc2)C(=O)O[C@H](C(C)C)C(=O)N2CCCC[C@H]2C(=O)N(C)[C@@H](C(C)C)C(=O)N[C@@H](C(C)C)C(=O)N(C)[C@@H](CC(=O)O)C(=O)N(C)[C@@H]([C@@H](C)CC)C(=O)N1C`: the IC50 in the assay with HeLa S3 was more than 10 µM. Also, the inhibition result (in the assay on Pyricularia oryzae; in assay [2]; with Aspergillus niger [3]; with Fusarium oxysporum) was “Active” each time. In the assay on Aspergillus niger [1], the MED stood at 0.3 µg. Also, the MID in the assay with Alternaria alternata was 0.01 µg; with Botrytis cinerea, 0.01 to 0.3 µg.

As for `CC[C@H](C)[C@H]1C(=O)NCC(=O)N(C)[C@@H](C(C)C)C(=O)N[C@@H](Cc2ccc(OC)cc2)C(=O)O[C@H](C(C)C)C(=O)N2CCC[C@H]2C(=O)N(C)[C@@H](C(C)C)C(=O)N[C@@H](C(C)C)C(=O)N(C)[C@@H](CC(=O)O)C(=O)N(C)[C@@H]([C@@H](C)CC)C(=O)N1C`, in the assay with HeLa S3, the IC50 is more than 10 µM. Besides, the inhibition entry (in the assay on Pyricularia oryzae; in assay [2]; in the assay with Aspergillus niger [3]; with Fusarium oxysporum) was “Active” throughout. Further, the MED in the assay with Aspergillus niger [1] was determined as 0.3 µg. Further, the MID lay in the range of 0.03 to 0.3 µg in the assay on Alternaria alternata and 0.01 to 0.3 µg in the assay on Botrytis cinerea.

Turning to `CC[C@H](C)[C@H]1C(=O)N(C)[C@@H](C(C)C)C(=O)NCC(=O)N(C)[C@@H](C(C)C)C(=O)N[C@@H](Cc2ccc(OC)cc2)C(=O)O[C@H](C(C)C)C(=O)N2CCCC[C@H]2C(=O)N(C)[C@@H](C(C)C)C(=O)N[C@@H](C(C)C)C(=O)N(C)[C@@H](CC(=O)O)C(=O)N1C`, in the assay with HeLa S3, the IC50 was more than 10 µM. The inhibition result (with Pyricularia oryzae; in assay [2]; with Aspergillus niger [3]; with Fusarium oxysporum) was “Active” throughout. The MED with Aspergillus niger [1] turned out to be 0.3 µg. Also, the MID was in the range of 0.03 to 0.3 µg with Alternaria alternata and 0.01 to 0.3 µg in the assay with Botrytis cinerea.

Regarding `CC[C@H](C)[C@H]1C(=O)N(C)[C@@H](CC(C)C)C(=O)NCC(=O)N(C)[C@@H](C(C)C)C(=O)N[C@@H](Cc2ccc(OC)cc2)C(=O)O[C@H](C(C)C)C(=O)N2CCCC[C@H]2C(=O)N(C)[C@@H](C(C)C)C(=O)N[C@@H](C(C)C)C(=O)N(C)[C@@H](CC(=O)O)C(=O)N1C`, the IC50 with HeLa S3 was more than 10 µM. Also, the inhibition result (with Pyricularia oryzae; in assay [2]; in the assay with Aspergillus niger [3]; with Fusarium oxysporum) was “Active” throughout. Also, the MED in the assay with Aspergillus niger [1] was 0.3 µg. Also, the MID in the assay on Alternaria alternata was in the range of 0.03 to 0.3 µg; with Botrytis cinerea, 0.01 to 0.3 µg.

For `CC[C@H](C)[C@H]1C(=O)NCC(=O)N(C)[C@@H](C(C)C)C(=O)N[C@@H](Cc2ccc(OC)cc2)C(=O)O[C@H](C(C)C)C(=O)N2CCCC[C@H]2C(=O)N(C)[C@@H](C(C)C)C(=O)N[C@@H](C(C)C)C(=O)N(C)[C@@H](CC(=O)O)C(=O)N(C)[C@@H](C(C)C)C(=O)N1C`, in the assay on HeLa S3, the IC50 is more than 10 µM. The inhibition result (in the assay on Pyricularia oryzae; in assay [2]; in the assay with Aspergillus niger [3]; in the assay with Fusarium oxysporum) was “Active” in each case. In addition, the MED with Aspergillus niger [1] came to 0.3 µg. In addition, the MID was 0.01 µg in the assay on Alternaria alternata and 0.01 to 0.3 µg in the assay with Botrytis cinerea.

Regarding `CC[C@H](C)[C@H]1C(=O)NCC(=O)N(C)[C@@H](C(C)C)C(=O)N[C@@H](Cc2ccc(OC)cc2)C(=O)O[C@H](C(C)C)C(=O)N2CCCC[C@H]2C(=O)N(C)[C@@H](C(C)C)C(=O)N[C@@H](CC(C)C)C(=O)N(C)[C@@H](CC(=O)O)C(=O)N(C)[C@@H]([C@@H](C)CC)C(=O)N1C`, in the assay on HeLa S3, the IC50 was more than 10 µM. Also, the inhibition result (in the assay with Pyricularia oryzae; in assay [2]; in the assay on Aspergillus niger [3]; in the assay on Fusarium oxysporum) was “Active” each time. The MED with Aspergillus niger [1] was 3 µg. For the same compound, the MID in the assay on Alternaria alternata fell in the range of 0.03 to 0.3 µg; in the assay on Botrytis cinerea, 0.01 to 0.3 µg.

On to `CC[C@H](C)[C@H]1C(=O)NCC(=O)N(C)[C@@H](C(C)C)C(=O)N[C@@H](Cc2ccc(OC)cc2)C(=O)O[C@H](C(C)C)C(=O)N2CCCC[C@H]2C(=O)N(C)[C@@H](C(C)C)C(=O)N[C@@H](C(C)C)C(=O)N(C)[C@@H](CC(=O)O)C(=O)N(C)[C@@H](CC(C)C)C(=O)N1C`, for which the IC50 in the assay with HeLa S3 is more than 10 µM. The inhibition result (with Pyricularia oryzae; in assay [2]; with Aspergillus niger [3]; in the assay on Fusarium oxysporum) was “Active” throughout. Also, the MED in the assay on Aspergillus niger [1] was determined as 0.3 µg. Besides, the MID in the assay on Alternaria alternata was 0.03 to 0.3 µg; in the assay with Botrytis cinerea it was 0.01 to 0.3 µg.
